Patent US20190127707A1, “MEDIUM FOR CULTURING NAIVE PLURIPOTENT STEM CELLS AND METHOD FOR CULTURING PLURIPOTENT STEM CELLS” (KYOWA HAKKO BIO CO., LTD., priority 2016, published 2019)

Columns and labels:
Tic-FX cells [1] = assay: Culturing of iPS cells in the presence of low molecular weight compounds (cell count); type: cell-based, human; details: 40 ng/mL FGF2, five days
Method: Media were produced by adding 1 μM of Y-27632, 20 ng/mL of LIF and 40 ng/mL of FGF2 to the basal medium, and media were produced by adding the following inhibitors to the media at concentrations of 1 μM (PD0325901), 0.3 μM (CHIR99021), 0.5 μM (SB590885), 1 μM (WH-4-023), 10 μM (SP600125), 10 μM (SB203580), 5 μM (Go6983), 5 μM (GF109203X), 2 μM (Porsomorphin) or 400 ng/mL (Noggin) each. The Tic-FX cells were proliferated in suspension culture in ultra-low attachment 6-well plates (manufactured by Coming Incorporated) containing the media in the presence of 10% CO2 at 37° C. The cells were cultured for five days, and the cells were counted. In FIG. 6, “−” indicates the results using the medium to which no inhibitor was added.

Tic-FX cells [2] = assay: Real-time PCR of pluripotency markers in cells proliferated with inhibitors; type: cell-based, human; details: 40 ng/mL FGF2, versus control Tic-FX
Text: Cells cultured in the basal medium were used as the control (indicated by Tic-FX in FIG. 7A and FIG. 7B).

human iPS cells = details: added to the medium; cells dispersed into single cells or clusters of several to several dozen cells; cited from earlier work
Tic-FX cells [3] = assay: Influence on proliferation of iPS cells in the presence of ROCK inhibitor (suspension culture); type: cell-based, human; details: Y-27632 at 1 μM, 3 μM or 10 μM in hESF-FX medium
Method: In the following Examples, a medium obtained by mixing the following components in the amounts shown in Table 1 which had been sterilized with a […] into mESF Basal Medium (manufactured by Wako Pure Chemical Industries, Ltd., 136-17805) was used as hESF-FX medium. As the iPS cells, Tic-FX cells [a cell line obtained by conditioning iPS cells, line Tic (JCRB1331) to a feeder-free xeno-free culture (FX)] were used. A ROCK inhibitor (Y-27632) was dissolved in the hESF-FX medium at 1 μM, 3 μM or 10μM. The media each in an amount of 3 mL were put into an ultra-low attachment 6-well plate (manufactured by Corning Incorporated), and the Tic-FX cells were cultured in the presence of 10% CO2 at 37° C. (suspension culture). The plate was observed after one day, three days and five days of cultivation. […] The numbers of the cells per well and the viability of the cells were measured after five days of cultivation.

Tic-FX cells [4] = assay: Real-time PCR of undifferentiation, naive type-specific and differentiation marker genes in cells of Example 1; type: cell-based, human; details: five days, relative to GAPDH; for expression level of NCAM / expression level of naive type-specific STELLA gene: versus control; for expression level of NANOG / expression level of OCT3/4: versus control Tic-FX
Method: The expression of marker genes was examined by real-time PCR. Real-time PCR was conducted using a real-time PCR system (7300 manufactured by Applied Biosystems) by the following reaction procedures using the following primers. 95° C. 30 seconds→[(95° C. 5 seconds→60° C. 31 seconds)×40 cycles]→Melting Cycle Using the cells cultured in Example 1, the expression levels of NANOG and OCT3/4, which are undifferentiation marker genes, […], which is a naive type-specific marker gene, and NCAM, which is a neuronal differentiation-specific marker gene, in the cells after five days of cultivation were examined by the real-time PCR. In FIG. 3A to FIG. 3D, the vertical axes each indicate the ratio of the expression level of the target gene of the sample to that of GAPDH (glyceraldehyde-3-phosphate dehydrogenase), which was used as the internal standard. Specifically, the values in the graphs each mean the relative value (unit is fold) of the DNA amount before the amplification determined from the difference between the Cp value of GAPDH and the Cp value of the target gene. Here, the internal standard is a gene whose expression level is always constant independently of the state of the cells. The Cp value is the number of cycles which are necessary to amplify DNA to the amount that can be detected with a measurement device when the DNA is amplified by PCR reaction (theoretically, the DNA amount doubles in one cycle).

[5] = 0.3 μM added to medium with 1 μM Y-27632, 20 ng/mL LIF
[6] = 400 ng/mL added to medium with 1 μM Y-27632, 20 ng/mL LIF

Cc1c[nH]c(-c2cnc(NCCNc3ccc(C#N)cn3)nc2-c2ccc(Cl)cc2Cl)n1 [CHIR99021, 6-{2-[4-(2,4-dichloro-phenyl)-5-(4-methyl-1H-imidazol-2-yl)-pyrimidin-2-ylamino]-ethylamino}-nicotinonitrile]
growth rate of the cells (Tic-FX cells [1]; [5]): high | expression level of NANOG (Tic-FX cells [2]; [5]): increased | expression level of OCT3/4 (Tic-FX cells [2]; [5]): increased

C[C@@H](N)[C@H]1CC[C@H](C(=O)Nc2ccncc2)CC1.Cl.Cl [Y-27632, (+)-(R)-trans-4-(1-aminoethyl)-N-(4-pyridyl)cyclohexanecarboxamide dihydrochloride]
apoptosis of human iPS cells (human iPS cells): suppresses the apoptosis | intercellular adhesion (human iPS cells): promotes the intercellular adhesion | number of the cells per well (Tic-FX cells [3]; after five days of cultivation): increased as the concentration of the ROCK inhibitor was higher | viability of the cells (Tic-FX cells [3]; after five days of cultivation): increased as the concentration of the ROCK inhibitor was higher | number of the cells (micrographs, FIG. 1A and FIG. 1B) (Tic-FX cells [3]; observed after one, three and five days): increased as the concentration of the ROCK inhibitor was higher | expression level of NCAM (Tic-FX cells [4]; 1 μM): almost the same as that of the control | expression level of naive type-specific STELLA gene (Tic-FX cells [4]; 1 μM): higher than that of the control | expression level of NANOG (Tic-FX cells [4]; 1 μM): higher than those of the control | expression level of OCT3/4 (Tic-FX cells [4]; 1 μM): higher than those of the control | expression level of NCAM (Tic-FX cells [4]; 3 μM): higher than that of the control | expression level of naive type-specific STELLA gene (Tic-FX cells [4]; 3 μM): higher than that of the control | expression level of NANOG (Tic-FX cells [4]; 3 μM): higher than those of the control | expression level of OCT3/4 (Tic-FX cells [4]; 3 μM): higher than those of the control | expression level of NCAM (Tic-FX cells [4]; 10 μM): higher than that of the control | expression level of naive type-specific STELLA gene (Tic-FX cells [4]; 10 μM): slightly higher than that of the control | expression level of NANOG (Tic-FX cells [4]; 10 μM): lower than those of the control | expression level of OCT3/4 (Tic-FX cells [4]; 10 μM): lower than those of the control

B1: Noggin: Noggin, Recombinant Human, manufactured by R&D Systems; endogenous protein that inhibits BMP (protein, UniProt Q13253 28-232, looked up)
Noggin: QHYLHIRPAPSDNLPLVDLIEHPDPIFDPKEKDLNETLLRSLLGGHYDPGFMATSPPEDRPGGGGGAAGGAEDLAELDQLLRQRPSGAMPSEIKGLEFSEGLAQGKKQRLSKKLRRKLQMWLWSQTFCPVLYAWNDLGSRFWPRYVKVGSCFSKRSCSVPEGMVCKPSKSVHLTVLRWRCQRRGGQRCGWIPIQYPIISECKCSC
growth rate of the cells (Tic-FX cells [1]; [6]): high | expression level of NANOG (Tic-FX cells [2]; [6]): increased | expression level of OCT3/4 (Tic-FX cells [2]; [6]): increased
